Measured values as given in patent US5328913A, “Minoxidil analogs as inhibitors of cell proliferation and lysyl hydroxylase” (priority 1992, dated 1994).

System: lysyl hydroxylase
Assay: Lysyl hydroxylase activity in fibroblasts treated with minoxidil and its hydroxy derivatives (Example 3)
Assay type: cell-based, human
Details: for Fibroblast Lysyl Hydroxylase Activity: 48 hr
Protocol: Culture of human skin fibroblasts derived from an apparently normal adult were grown to confluent densities in Dulbecco's modified Eagle's medium supplemented with 10% (v/v) fetal calf serum. Thereafter, the medium was replaced with medium supplemented with 0.5% dialyzed fetal calf serum. […] In some experiments, minoxodil was dissolved in 95% (v/v) ethanol; the final concentration of minoxidil was 0.3 mM and that of ethanol was 0.3%. Cultures treated with ethanol only served as the control.
During the last 3 hr of treatment, cultures received 100 μM ascorbic acid. The enzyme activities in extracts of treated cells were measured by tritium-release assays described previously (Murad and Pinnell, J. Biol. Chem. 262:11,973 (1987)).

lysyl hydroxylase suppressing activity at 5 mM (in words) (5 mM): loses its effect
SMILES: Nc1cc(N2CCCCC2)nc(N)[n+]1[O-] [Minoxidil]
Fibroblast Lysyl Hydroxylase Activity (1 mM): 378 cpm^3 H2 O/mg protein
Lysyl hydroxylase activity, % of control level (1 mM, 72 hr): 25%
Lysyl Hydroxylase Activity (1 mM, 72 hr (Table VI)): 308 cpm ^3 H2 O/mg protein
Lysyl Hydroxylase Activity (1 mM, 72 hr (description table)): 308 cpm^3 H2 O/mg protein
Fibroblast Lysyl Hydroxylase Activity (5 mM): 1321 cpm^3 H2 O/mg protein
